Experimental data from patent EP4663640A1 (Shanghai Institute of Materia Medica, Chinese Academy of …, priority 2023, dated 2024).
Where two headings read alike, the source gives them in different places. One block for each molecule: values may come before it.

How the values were obtained:
[1] = Liver microsome stability test, mouse; assay type: in vitro ADME; conditions: Mouse liver microsomes; for MF %: metabolic bioavailability
Excerpt: Calculation of Intrinsic Clearance: Clint = (1000 × slope)/(P); [formula]

[2] = Liver microsome stability test, human; conditions: Human liver microsomes; for MF %: metabolic bioavailability
[3] = Preliminary pharmacokinetic evaluation, plasma drug concentration after oral administration to mice; assay type: in vivo, ICR mice; conditions: male, ICR, mouse, oral 10 mg/kg, Mean ± SD, N = 3
Description: The test compound was prepared according to the following solvent: an aqueous solution of DMSO/Tween 80/0.5% (m/v) CMC-Na at a ratio of 2:2:96 (v/v/v), with a drug concentration of 1 mg/mL. Then, the test compound was gavaged to mice at a dosage of 10 mL/kg, with a dose of 10 mg/kg. Each compound was administered to 3 mice. At 1h and 4h after administration, about 50 µL of blood was collected from the orbital venous plexus of the mouse and placed in a centrifuge tube containing EDTA-K2 anticoagulant.

hTRPC5 = biological target: T1, hTRPC5 (Homo sapiens, UniProt Q9UL62); assay: TRPC5 inhibitory activity assay (FLIPR calcium fluorescence, Englerin A stimulation); assay type: cell-based
T1 construct: expressed in transfected cells; host or cells: HEK-293
T1 sequence (Q9UL62 1-973): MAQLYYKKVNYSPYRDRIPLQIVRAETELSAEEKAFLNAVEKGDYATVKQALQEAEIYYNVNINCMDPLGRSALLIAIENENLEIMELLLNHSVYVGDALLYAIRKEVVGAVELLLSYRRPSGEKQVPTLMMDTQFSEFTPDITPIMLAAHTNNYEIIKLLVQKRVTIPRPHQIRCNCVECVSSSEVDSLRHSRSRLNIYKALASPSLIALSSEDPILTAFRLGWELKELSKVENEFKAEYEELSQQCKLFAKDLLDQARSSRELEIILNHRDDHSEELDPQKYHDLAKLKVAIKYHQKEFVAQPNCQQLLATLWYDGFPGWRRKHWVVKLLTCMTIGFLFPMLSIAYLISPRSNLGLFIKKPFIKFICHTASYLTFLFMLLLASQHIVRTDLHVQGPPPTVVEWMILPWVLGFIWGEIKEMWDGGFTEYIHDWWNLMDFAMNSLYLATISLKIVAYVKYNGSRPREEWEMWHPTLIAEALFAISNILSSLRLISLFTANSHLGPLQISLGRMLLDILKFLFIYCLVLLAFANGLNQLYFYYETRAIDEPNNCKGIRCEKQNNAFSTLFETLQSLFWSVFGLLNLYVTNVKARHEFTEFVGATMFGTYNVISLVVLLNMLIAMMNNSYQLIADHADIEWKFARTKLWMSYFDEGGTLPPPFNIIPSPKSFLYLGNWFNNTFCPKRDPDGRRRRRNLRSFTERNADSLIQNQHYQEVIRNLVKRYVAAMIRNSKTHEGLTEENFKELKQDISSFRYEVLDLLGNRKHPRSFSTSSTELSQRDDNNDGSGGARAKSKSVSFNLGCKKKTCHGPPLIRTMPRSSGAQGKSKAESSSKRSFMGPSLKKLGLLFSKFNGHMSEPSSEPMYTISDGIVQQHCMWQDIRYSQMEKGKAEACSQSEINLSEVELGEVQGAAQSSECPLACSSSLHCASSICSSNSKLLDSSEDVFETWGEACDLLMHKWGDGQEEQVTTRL
Description: HEK-293 cells expressing hTRPC3, hTRPC4 or hTRPC5 were seeded into black-bottomed 96-well plates coated with poly-lysine (PDL), with 2×10^4 cells per well. After 8 h of culture, the original culture medium was discarded, and 60 µL of Fluo-4/AM dye with a final concentration of 4 µM was added. The plates were incubated at 37 °C for 60 min, and then rinsed five times with calcium flow detection buffer. […] Then, the agonist Englerin A (EA) (MedChemExpress, Shanghai, China, final concentration of 0.3nM) was added, and the fluorescence signal was collected for 600 seconds. The fluorescence signal of the trajectory diagram is represented by F/F0, wherein F is the fluorescence signal at different time points, and F0 is the basic fluorescence signal, that is, the average value of the fluorescence signal at the first 10 time points. […] The area under the curve of the change in fluorescence intensity after adding EA was calculated. IC50 value was calculated using log[Inhibitor] vs. response - Variable slope, taking into account the area under the curve and the log value of the concentration of the compound.

[4] = Table 1, TRPC5 channels, HEK-293 cells expressing hTRPC5, read-out: FLIPR IC50

MF % [1]: 56.4%
MF % [2]: 72.5%
SMILES: Cn1c(=O)n(CCCO)c(=O)c2c1nc(C1(F)CCC(F)(F)CC1)n2Cc1ccc(F)cc1F [Example E64, 7-(2,4-difluorobenzyl)-1-(3-hydroxypropyl)-3-methyl-8-(1,4,4-trifluorocyclohexyl)-3,7-dihydro-1H-purine-2,6-dione]
Stability Evaluation [1]: Medium (30%<MF%<70%, medium metabolic stability)
Stability Evaluation [2]: Better (MF% >70%, better metabolic stability)

concentration at 1 h [3]: 1170 ± 410 ng/mL
concentration at 4 h [3]: 576 ± 117 ng/mL
SMILES: CC(C)n1c(=O)n(CCCO)c(=O)c2c1nc(C1(F)CCC(F)(F)CC1)n2Cc1ccc(F)cc1 [Example E46, 7-(4-fluorobenzyl)-1-(3-hydroxypropyl)-3-isopropyl-8-(1,4,4-trifluorocyclohexyl)-3,7-dihydro-1H-purine-2,6-dione]

MF % [2]: 77.4%
SMILES: Cn1c(=O)n(CCCO)c(=O)c2c1nc(C1(F)CCC(F)(F)CC1)n2Cc1cc(F)cc(F)c1 [Example E61, 7-(3,5-difluorobenzyl)-1-(3-hydroxypropyl)-3-methyl-8-(1,4,4-trifluorocyclohexyl)-3,7-dihydro-1H-purine-2,6-dione]
Stability Evaluation [2]: Better (MF% >70%, better metabolic stability)

IC50 (hTRPC5; [4]): 13.5 nM
SMILES: Cn1c(=O)n(CCCO)c(=O)c2c1nc(C1CCC(C(F)(F)F)CC1)n2Cc1ccc(Cl)cc1 (stereo not drawn) [Example E12, 7-(4-chlorobenzyl)-1-(3-hydroxypropyl)-3-methyl-8-(4-(trifluoromethyl)cyclohexyl)-3,7-dihydro-1H-purine-2,6-dione]

concentration at 1 h [3]: 1260 ± 167 ng/mL
concentration at 4 h [3]: 1200 ± 110 ng/mL
SMILES: Cn1c(=O)n(CCCO)c(=O)c2c1nc(C1(F)CCC(F)(F)CC1)n2Cc1ccc(Cl)cc1F [Example E70, 7-(4-chloro-2-fluorobenzyl)-1-(3-hydroxypropyl)-3-methyl-8-(1,4,4-trifluorocyclohexyl)-3,7-dihydro-1H-purine-2,6-dione]

IC50 (hTRPC5; [4]): 52.9 nM
SMILES: CCn1c(=O)n(CCCO)c(=O)c2c1nc(C1=CCC(C(F)(F)F)CC1)n2Cc1ccc(Cl)c(F)c1 (stereo not drawn) [Example E57, 7-(4-chloro-3-fluorobenzyl)-3-ethyl-1-(3-hydroxypropyl)-8-(4-(trifluoromethyl)cyclohex-1-en-1-yl)-3,7-dihydro-1H-purine-2,6-dione]

IC50 (hTRPC5; [4]): 0.27 nM
SMILES: Cn1c(=O)n(CCCO)c(=O)c2c1nc(C1(F)CCC(C(F)(F)F)CC1)n2Cc1ccc(Cl)cc1F (stereo not drawn) [Example E71, 7-(4-chloro-2-fluorobenzyl)-8-(1-fluoro-4-(trifluoromethyl)cyclohexyl)-1-(3-hydroxypropyl)-3-methyl-3,7-dihydro-1H-purine-2,6-dione]

MF % [1]: 59.1%
MF % [2]: 67.0%
SMILES: Cn1c(=O)n(CCCO)c(=O)c2c1nc(C1(F)CCC(F)(F)CC1)n2Cc1ccc(F)cc1 [Example E45, 7-(4-fluorobenzyl)-1-(3-hydroxypropyl)-3-methyl-8-(1,4,4-trifluorocyclohexyl)-3,7-dihydro-1H-purine-2,6-dione]
Stability Evaluation [1]: Medium (30%<MF%<70%, medium metabolic stability)
Stability Evaluation [2]: Medium (30%<MF%<70%, medium metabolic stability)

IC50 (hTRPC5; [4]): 322 nM
SMILES: Cn1c(=O)n(CCCO)c(=O)c2c1nc(C1(O)CCC(C(F)(F)F)CC1)n2Cc1ccc(Cl)cc1 (stereo not drawn) [Example E23, 7-(4-chlorobenzyl)-8-(1-hydroxy-4-(trifluoromethyl)cyclohexyl)-1-(3-hydroxypropyl)-3-methyl-3,7-dihydro-1H-purine-2,6-dione]

SMILES: Cn1c(=O)n(CCCO)c(=O)c2c1nc(C1CCC3(CC1)OCCO3)n2Cc1ccc(Cl)cc1 [Example E13, 7-(4-chlorobenzyl)-1-(3-hydroxypropyl)-3-methyl-8-(1,4-dioxacyclo[4.5]dec-8-yl)-3,7-dihydro-1H-purine-2,6-dione]
IC50 (hTRPC5): 82.1 nM

IC50 (hTRPC5; [4]): 83.8 nM
SMILES: Cn1c(=O)n(CCCO)c(=O)c2c1nc(C1=Cc3ccccc3C1)n2Cc1ccc(Cl)cc1 [Example E20, 7-(4-chlorobenzyl)-1-(3-hydroxypropyl)-8-(1H-inden-2-yl)-3-methyl-3,7-dihydro-1H-purine-2,6-dione]

IC50 (hTRPC5; [4]): 76 nM
SMILES: CC(C)n1c(=O)n(CCCO)c(=O)c2c1nc(C1CC1C1CCCC1)n2Cc1ccc(Cl)cc1 (stereo not drawn) [Example E15, 7-(4-chlorobenzyl)-8-(2-cyclopentylcyclopropyl)-1-(3-hydroxypropyl)-3-isopropyl-3,7-dihydro-1H-purine-2,6-dione]

MF % [1]: 42.1%
MF % [2]: 50.5%
SMILES: Cn1c(=O)n(CCCO)c(=O)c2c1nc(C1(F)CCC(F)(F)CC1)n2Cc1ccc(Cl)cc1 [Example E38, 7-(4-chlorobenzyl)-1-(3-hydroxypropyl)-3-methyl-8-(1,4,4-trifluorocyclohexyl)-3,7-dihydro-1H-purine-2,6-dione]
Stability Evaluation [1]: Medium (30%<MF%<70%, medium metabolic stability)
Stability Evaluation [2]: Medium (30%<MF%<70%, medium metabolic stability)

IC50 (hTRPC5; [4]): 0.37 nM
SMILES: Cn1c(=O)n(CCCO)c(=O)c2c1nc(C1(F)CCC(C(F)(F)F)CC1)n2Cc1ccc(F)c(Cl)c1 (stereo not drawn) [Example E69, 7-(3-chloro-4-fluorobenzyl)-8-(1-fluoro-4-(trifluoromethyl)cyclohexyl)-1-(3-hydroxypropyl)-3-methyl-3,7-dihydro-1H-purine-2,6-dione]

IC50 (hTRPC5; [4]): 8.79 nM
SMILES: Cn1c(=O)n(CCCO)c(=O)c2c1nc(C1=CCC(C)(C)CC1)n2Cc1ccc(Cl)cc1 [Example E11, 7-(4-chlorobenzyl)-8-(4,4-dimethylcyclohex-1-en-1-yl)-1-(3-hydroxypropyl)-3-methyl-3,7-dihydro-1H-purine-2,6-dione]

IC50 (hTRPC5; [4]): 2.85 nM
SMILES: Cn1c(=O)n(CCCO)c(=O)c2c1nc(C1(F)CCC(C(F)(F)F)CC1)n2Cc1ccc(F)cc1F (stereo not drawn) [Example E65, 7-(2,4-difluorobenzyl)-8-(1-fluoro-4-(trifluoromethyl)cyclohexyl)-1-(3-hydroxypropyl)-3-methyl-3,7-dihydro-1H-purine-2,6-dione]

SMILES: Cn1c(=O)n(CCCO)c(=O)c2c1nc(C1=CC(F)C(C)(C)CC1)n2Cc1ccc(Cl)cc1 (stereo not drawn) [Example E34]
IC50 (hTRPC5; [4]): 49.1 nM

IC50 (hTRPC5; [4]): 198 nM
SMILES: COC1(c2nc3c(c(=O)n(CCCO)c(=O)n3C)n2Cc2ccc(Cl)cc2)CCC(C(F)(F)F)CC1 (stereo not drawn) [Example E22, 7-(4-chlorobenzyl)-1-(3-hydroxypropyl)-8-(1-methoxy-4-(trifluoromethyl)cyclohexyl)-3-methyl-3,7-dihydro-1H-purine-2,6-dione]

IC50 (hTRPC5; [4]): 41.4 nM
SMILES: CC(C)n1c(=O)n(CCCO)c(=O)c2c1nc(C1(F)CCC(C(F)(F)F)CC1)n2Cc1ccc(Cl)cc1 (stereo not drawn) [Example E53, 7-(4-chlorobenzyl)-8-(1-fluoro-4-(trifluoromethyl)cyclohexyl)-1-(3-hydroxypropyl)-3-isopropyl-3,7-dihydro-1H-purine-2,6-dione]

MF % [2]: 66.7%
SMILES: Cn1c(=O)n(CCCO)c(=O)c2c1nc(C1(F)CCC(F)(F)CC1)n2Cc1ccc(C#N)cc1 [Example E72, 4-((1-(3-hydroxypropyl)-3-methyl-2,6-dioxo-8-(1,4,4-trifluorocyclohexyl)-1,2,3,6-tetrahydro-7H-purin-7-yl)methyl)benzonitrile]
Stability Evaluation [2]: Medium (30%<MF%<70%, medium metabolic stability)
